{"source": "patent US20050220779A1", "about": "“Integrin linked kinase modulation of macrophage activation” (priority 2001, published 2005)", "key": {"SRC": {"biological_target": "SRC (Homo sapiens, UniProt P12931)", "sequence (P12931 whole entry, species assumed)": "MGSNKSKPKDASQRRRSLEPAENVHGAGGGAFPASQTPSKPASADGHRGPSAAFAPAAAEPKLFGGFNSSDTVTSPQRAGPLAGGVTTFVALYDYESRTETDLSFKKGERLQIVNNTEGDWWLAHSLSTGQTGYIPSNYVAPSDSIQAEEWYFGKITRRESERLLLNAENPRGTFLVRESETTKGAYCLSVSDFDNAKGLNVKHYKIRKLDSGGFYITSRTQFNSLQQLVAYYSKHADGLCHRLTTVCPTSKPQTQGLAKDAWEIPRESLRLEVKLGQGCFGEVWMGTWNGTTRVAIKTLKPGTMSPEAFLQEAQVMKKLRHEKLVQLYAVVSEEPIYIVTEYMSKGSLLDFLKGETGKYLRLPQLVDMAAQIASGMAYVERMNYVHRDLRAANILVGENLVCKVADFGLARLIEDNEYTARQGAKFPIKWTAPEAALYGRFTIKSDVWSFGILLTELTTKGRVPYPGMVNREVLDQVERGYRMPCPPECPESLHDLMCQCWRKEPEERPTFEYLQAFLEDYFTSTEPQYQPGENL", "test": "Protein kinase selectivity, SRC", "format": "biochemical"}, "CDC2": {"biological_target": "CDC2 (Homo sapiens, UniProt P06493)", "sequence (P06493 whole entry, species assumed)": "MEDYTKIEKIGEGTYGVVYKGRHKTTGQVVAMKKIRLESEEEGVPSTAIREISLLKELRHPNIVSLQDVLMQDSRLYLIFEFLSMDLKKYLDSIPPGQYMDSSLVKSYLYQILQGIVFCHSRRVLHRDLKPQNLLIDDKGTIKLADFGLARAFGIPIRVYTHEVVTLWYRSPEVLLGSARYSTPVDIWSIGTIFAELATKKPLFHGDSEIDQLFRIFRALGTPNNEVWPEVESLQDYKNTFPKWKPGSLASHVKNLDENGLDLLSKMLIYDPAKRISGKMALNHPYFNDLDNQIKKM", "sequence (P14635 whole entry partner, species assumed)": "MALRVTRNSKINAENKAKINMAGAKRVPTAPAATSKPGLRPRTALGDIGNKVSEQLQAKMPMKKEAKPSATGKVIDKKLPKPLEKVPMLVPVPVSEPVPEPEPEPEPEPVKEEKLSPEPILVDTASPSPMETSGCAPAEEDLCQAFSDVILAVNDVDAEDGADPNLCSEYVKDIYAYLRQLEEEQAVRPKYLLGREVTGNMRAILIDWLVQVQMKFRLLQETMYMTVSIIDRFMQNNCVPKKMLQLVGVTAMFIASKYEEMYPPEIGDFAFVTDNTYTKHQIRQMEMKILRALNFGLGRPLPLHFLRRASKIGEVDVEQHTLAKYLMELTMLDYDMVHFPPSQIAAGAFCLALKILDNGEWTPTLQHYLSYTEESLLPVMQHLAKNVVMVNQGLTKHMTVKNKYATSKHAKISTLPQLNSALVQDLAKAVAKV", "test": "Protein kinase selectivity, CDC2", "format": "biochemical"}, "ERK1": {"biological_target": "ERK1 (Homo sapiens, UniProt P27361)", "sequence (P27361 whole entry, species assumed)": "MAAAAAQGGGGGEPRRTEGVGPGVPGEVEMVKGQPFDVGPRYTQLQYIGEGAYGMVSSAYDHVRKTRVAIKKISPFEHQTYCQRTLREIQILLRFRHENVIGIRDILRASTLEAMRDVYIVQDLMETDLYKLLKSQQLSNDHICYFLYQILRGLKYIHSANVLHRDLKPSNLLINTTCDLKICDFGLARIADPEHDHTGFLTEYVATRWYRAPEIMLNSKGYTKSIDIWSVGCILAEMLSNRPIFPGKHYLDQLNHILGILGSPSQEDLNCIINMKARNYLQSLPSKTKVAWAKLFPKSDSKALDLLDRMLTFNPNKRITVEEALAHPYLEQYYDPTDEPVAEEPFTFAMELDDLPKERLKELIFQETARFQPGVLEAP", "test": "Protein kinase selectivity, ERK1", "format": "biochemical"}, "CK2": {"biological_target": "CK2 (Homo sapiens, UniProt P68400)", "sequence (P68400 whole entry)": "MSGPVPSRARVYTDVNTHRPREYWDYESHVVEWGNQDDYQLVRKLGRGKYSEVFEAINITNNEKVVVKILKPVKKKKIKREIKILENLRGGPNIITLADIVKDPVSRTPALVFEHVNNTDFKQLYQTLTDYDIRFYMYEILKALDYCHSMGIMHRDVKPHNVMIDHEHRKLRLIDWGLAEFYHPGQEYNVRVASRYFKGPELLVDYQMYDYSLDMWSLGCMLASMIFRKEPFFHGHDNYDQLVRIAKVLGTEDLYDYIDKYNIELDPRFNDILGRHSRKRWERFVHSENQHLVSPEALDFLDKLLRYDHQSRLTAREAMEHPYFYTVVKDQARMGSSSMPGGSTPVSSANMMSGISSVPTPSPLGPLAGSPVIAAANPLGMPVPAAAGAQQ", "test": "Protein kinase selectivity, CK2", "format": "biochemical"}, "HUVEC cells": {"test_system": "HUVEC cells", "test": "In vitro Matrigel morphogenesis (tube formation) assay of VEGF stimulated HUVEC cells", "format": "cell-based, human", "settings": "100 mM (so in the source)", "description": "In Vitro Angiogenesis. […] After 5 hours of incubation in a 5% CO2-humidified atmosphere at 37 °C, the three-dimensional organization of the cells was examined using an inverted photomicroscope. The cells were fixed with Crystal Violet (0.05% in 20% ethanol) and digitally photographed.\nTo determine the anti-angiogenic properties of ILK inhibitors, an in vitro Matrigel morphogenesis assay was established. This assay evaluates the ability of endothelial cells to differentiate into capillary-like structures, a crucial step during neovascularization. HUVEC cells when stimulated with VEGF and seeded onto Matrigel rapidly attach to the matrix and begin to migrate and interact with the extracellular matrix proteins present in the Matrigel. […] These capillary-like structures can be assessed by histology (FIG. 2). Samples are cut on a cross section and subsequent viewed using an electron microscope. Typically, cylindrical formations with a lumen are observed. A distinct difference in the morphology of tube formation on Matrigel, compared to other in vitro angiogenesis assays is a reduction in the proliferation of endothelial cells. […] Using this model system, both inhibitors and stimulators of angiogenesis can be assessed prior to in vivo testing.\nThe assay was established and reproducibility confirmed. SU5416, shown to inhibit angiogenesis in other assays, was also evaluated. […]"}}, "data": [{"smiles": "Oc1ccc2c(c1)CC1NCCc3cc(O)c(O)c-2c31", "note": "(centres unmarked) [KP-21849, 5,6,6a,7-Tetrahydro-4H-dibenzo[de,g]quinoline-1,2,9-triol]", "values": [{"measurement": "Inhibition of SRC (in words)", "setting": "SRC", "result": "does not significantly inhibit"}, {"measurement": "Inhibition of CDC2 (in words)", "setting": "CDC2", "result": "does not significantly inhibit"}, {"measurement": "Inhibition of ERK1 (in words)", "setting": "ERK1", "result": "does not significantly inhibit"}, {"measurement": "Inhibition of CK2 (in words)", "setting": "CK2", "result": "does not significantly inhibit"}, {"measurement": "Effect on endothelial cell morphogenesis (in words)", "setting": "HUVEC cells", "result": "profound effect on HUVEC cells"}]}]}
